From patent US10710986B2, “PD-1/PD-L1 inhibitors” (Gilead Sciences, Inc., priority 2018, dated 2020) come the findings set out here.

Each structure is given as a SMILES string.

Sequence of PD-1/PD-L1 (Q9NZQ7 19-238): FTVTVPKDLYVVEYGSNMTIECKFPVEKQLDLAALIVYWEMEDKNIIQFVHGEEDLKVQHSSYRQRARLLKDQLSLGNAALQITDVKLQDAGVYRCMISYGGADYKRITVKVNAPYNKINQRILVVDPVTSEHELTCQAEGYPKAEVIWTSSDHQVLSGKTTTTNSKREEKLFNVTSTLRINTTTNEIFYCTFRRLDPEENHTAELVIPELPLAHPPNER

This test concerns the target PD-1/PD-L1 (Homo sapiens (Human), UniProt Q9NZQ7). The test is described as follows: PD-1/PD-L1 biochemical protein-protein interaction assay (ALPHA). As to conditions: 0.3 nM His tagged PD-L1, 2.5 nM biotinylated Fc-PD-1, 60 minutes at 25° C., read-out: IC50 PD-L1-PD1.
The term IC50 denotes the concentration that gives 50% inhibition. Turning to `COc1nc(-c2cccc(-c3cccc(-c4cnc(CN5CC6(C5)CC(C)(O)C6)c(OC)n4)c3Cl)c2Cl)cnc1CNC[C@@H]1CCC(=O)N1` [compound 307], the IC50 is 0.167 nM.

Take `COc1nc(-c2cccc(-c3cccc(-c4cnc(CN5CC6(C5)CC(O)(C(F)(F)F)C6)c(OC)n4)c3Cl)c2Cl)cnc1CNC[C@@H]1CCC(=O)N1` [compound 308]: the IC50 came to 0.337 nM.

For `COC[C@H]1CCN1Cc1ncc(-c2cccc(-c3cccc(-c4cnc(CNC[C@@H]5CCC(=O)N5)c(OC)n4)c3Cl)c2Cl)nc1OC` [compound 309], the IC50 was found to be 0.178 nM.

Regarding `COC[C@@H]1CCN1Cc1ncc(-c2cccc(-c3cccc(-c4cnc(CNC[C@@H]5CCC(=O)N5)c(OC)n4)c3Cl)c2Cl)nc1OC` [compound 310], the IC50 worked out at 0.216 nM.

Consider `COc1nc(-c2cccc(-c3cccc(-c4cnc(CNC[C@@H]5CCC(=O)N5)c(OC)n4)c3Cl)c2Cl)cnc1CNCC1CS(=O)(=O)C1` [compound 311], for which the IC50 was found to be 0.24 nM.

In the case of `COc1nc(-c2cccc(-c3cccc(-c4cnc(CN5C[C@H]6CC(=O)N[C@H]6C5)c(OC)n4)c3Cl)c2Cl)cnc1CNC[C@@H]1CCC(=O)N1` [compound 312], the IC50 worked out at 0.295 nM.

Take `COc1nc(-c2cccc(-c3cccc(-c4cnc(CNC[C@@H]5CCC(=O)N5)c(OC)n4)c3Cl)c2Cl)cnc1CNCC[C@H]1CCC(=O)N1` [compound 314]: the IC50 came out at 0.142 nM.

On to `COc1nc(-c2cccc(-c3cccc(-c4cnc([C@@H](C)N)c(OC)n4)c3Cl)c2Cl)cnc1CNC[C@@H]1CCC(=O)N1` [compound 315], for which the IC50 stood at 0.18 nM.

In the case of `COc1nc(-c2cccc(-c3cccc(-c4cnc([C@H](C)N)c(OC)n4)c3Cl)c2Cl)cnc1CNC[C@@H]1CCC(=O)N1` [compound 316], the IC50 worked out at 0.17 nM.

`COc1nc(-c2cccc(-c3cccc(-c4cnc(CN[C@@H](C)[C@H]5CCC(=O)N5)c(OC)n4)c3Cl)c2Cl)cnc1CN[C@@H](C)[C@H]1CCC(=O)N1` [compound 317]: the IC50 was 0.22 nM.

For `COc1nc(-c2cccc(-c3cccc(-c4cnc(CNC[C@@H]5CCC(=O)N5)c(OC)n4)c3Cl)c2Cl)cnc1CN` [compound 318], the IC50 amounted to 0.15 nM.

Consider `CNc1nc(-c2cccc(-c3cccc(-c4cnc(CN(C)C[C@@H]5CCC(=O)N5)c(NC)n4)c3Cl)c2Cl)cnc1CN(C)C[C@@H]1CCC(=O)N1` [compound 319], for which the IC50 is 3.87 nM.

Take `CNc1nc(-c2cccc(-c3cccc(-c4cnc(CNC[C@H]5CCC(=O)N5)c(NC)n4)c3Cl)c2Cl)cnc1CNC[C@H]1CCC(=O)N1` [compound 320]: the IC50 was determined as 3.72 nM.

As to `COc1nc(-c2cccc(-c3cccc(-c4cnc(CN[C@@H]5CCN(S(C)(=O)=O)C5)c(OC)n4)c3Cl)c2Cl)cnc1CN[C@@H]1CCN(S(C)(=O)=O)C1` [compound 321], the IC50 came to 0.46 nM.

Take `COc1nc(-c2cccc(-c3cccc(-c4cnc(CN(C)C[C@@H]5CCC(=O)N5)c(OC)n4)c3Cl)c2Cl)cnc1CN(C)CCO` [compound 322]: the IC50 was 0.23 nM.

Regarding `COc1nc(-c2cccc(-c3cccc(-c4cnc(CN(C)CCO)c(OC)n4)c3Cl)c2Cl)cnc1CNC[C@@H]1CCC(=O)N1` [compound 323], the IC50 is 0.12 nM.

For the molecule `COc1nc(-c2cccc(-c3cccc(-c4cnc(CNC[C@H]5NC(=O)[C@@H]6C[C@H]56)c(OC)n4)c3Cl)c2Cl)cnc1CNC[C@H]1NC(=O)[C@@H]2C[C@H]12` [compound 324], the IC50 worked out at 0.358 nM.

Regarding `COc1nc(-c2cccc(-c3cccc(-c4cnc(CN(Cc5ccccc5)C[C@@H]5CCC(=O)N5)c(OC)n4)c3Cl)c2Cl)cnc1CNC[C@@H]1CCC(=O)N1` [compound 325], the IC50 worked out at 1.86 nM.

For `COc1nc(-c2cccc(-c3cccc(-c4cnc(CNC[C@@H]5C[C@@H](C)C(=O)N5)c(OC)n4)c3Cl)c2Cl)cnc1CNC[C@@H]1C[C@@H](C)C(=O)N1` [compound 326], the IC50 came to 0.18 nM.

With `COc1nc(-c2cccc(-c3cccc(-c4cnc(CN(C)C[C@@H]5CCC(=O)N5)c(OC)n4)c3Cl)c2Cl)cnc1CN(C)C[C@@H]1CCC(=O)N1` [compound 327], the IC50 is 0.238 nM.

For `COc1nc(-c2cccc(-c3cccc(-c4cnc(CN(CC5CC5)C[C@@H]5CCC(=O)N5)c(OC)n4)c3Cl)c2Cl)cnc1CN(CC1CC1)C[C@@H]1CCC(=O)N1` [compound 328], the IC50 is 4.04 nM.

Regarding `COc1nc(-c2cccc(-c3cccc(-c4cnc(CN(CC5CC5)C[C@@H]5CCC(=O)N5)c(OC)n4)c3Cl)c2Cl)cnc1CNC[C@@H]1CCC(=O)N1` [compound 329], the IC50 came out at 0.955 nM.

On to `COc1nc(-c2cccc(-c3cccc(-c4cnc(CNC[C@@H]5C[C@@H](CC(F)(F)F)C(=O)N5)c(OC)n4)c3Cl)c2Cl)cnc1CNC[C@@H]1C[C@@H](CC(F)(F)F)C(=O)N1` [compound 330], for which the IC50 was 5.68 nM.

Turning to `COc1nc(-c2cccc(-c3cccc(-c4cnc(CNC[C@@H]5CC6(CC6)C(=O)N5)c(OC)n4)c3Cl)c2Cl)cnc1CNC[C@@H]1CC2(CC2)C(=O)N1` [compound 331], the IC50 is 0.669 nM.

With `COc1nc(-c2cccc(-c3cccc(-c4cnc(CN5[C@@H](C)COC[C@@H]5C)c(OC)n4)c3Cl)c2Cl)cnc1CNC[C@@H]1CCC(=O)N1` [compound 332], the IC50 turned out to be 0.743 nM.

As for `COc1nc(-c2cccc(-c3cccc(-c4cnc(CN[C@@H]5CCN(C6COC6)C5)c(OC)n4)c3Cl)c2Cl)cnc1CNC[C@@H]1CCC(=O)N1` [compound 333], the IC50 stood at 0.171 nM.

On to `COc1nc(-c2cccc(-c3cccc(-c4cnc(CN[C@@H]5CCOC[C@H]5O)c(OC)n4)c3Cl)c2Cl)cnc1CNC[C@@H]1CCC(=O)N1` [compound 334], for which the IC50 is 0.246 nM.

Turning to `COc1nc(-c2cccc(-c3cccc(-c4cnc(CN[C@H]5CCOC[C@@H]5O)c(OC)n4)c3Cl)c2Cl)cnc1CNC[C@@H]1CCC(=O)N1` [compound 335], the IC50 is 0.172 nM.

On to `COc1nc(-c2cccc(-c3cccc(-c4cnc(CN[C@H]5COCC[C@@H]5O)c(OC)n4)c3Cl)c2Cl)cnc1CNC[C@@H]1CCC(=O)N1` [compound 336], for which the IC50 stood at 0.137 nM.

With `COc1nc(-c2cccc(-c3cccc(-c4cnc(CNC[C@@H]5CCC(=O)N5)c(OC)n4)c3Cl)c2Cl)cnc1CNCc1ccc(S(N)(=O)=O)s1` [compound 337], the IC50 is 1.1 nM.

Take `COc1nc(-c2cccc(-c3cccc(-c4cnc(CNC[C@@H]5CCC(=O)N5)c(OC)n4)c3Cl)c2Cl)cnc1CNCc1ncccc1O` [compound 338]: the half-maximal inhibitory concentration (IC50) amounted to 0.565 nM.

For the molecule `COc1nc(-c2cccc(-c3cccc(-c4cnc(CN[C@@H]5COCC[C@H]5O)c(OC)n4)c3Cl)c2Cl)cnc1CNC[C@@H]1CCC(=O)N1` [compound 339], the IC50 was 0.192 nM.

As to `COCCNCc1ncc(-c2cccc(-c3cccc(-c4cnc(CNC[C@@H]5CCC(=O)N5)c(OC)n4)c3Cl)c2Cl)nc1OC` [compound 340], the IC50 worked out at 0.118 nM.

Take `COc1nc(-c2cccc(-c3cccc(-c4cnc(CN[C@H]5C[C@@H](CO)C5)c(OC)n4)c3Cl)c2Cl)cnc1CNC[C@@H]1CCC(=O)N1` [compound 341]: the IC50 was 0.094 nM.

Take `COc1nc(-c2cccc(-c3cccc(-c4cnc(CN[C@H]5C[C@H](O)C5)c(OC)n4)c3Cl)c2Cl)cnc1CNC[C@@H]1CCC(=O)N1` [compound 342]: the IC50 turned out to be 0.107 nM.

As for `COc1nc(-c2cccc(-c3cccc(-c4cnc(CN[C@H]5C[C@@H](O)C5)c(OC)n4)c3Cl)c2Cl)cnc1CNC[C@@H]1CCC(=O)N1` [compound 343], the IC50 came to 0.126 nM.

`COc1nc(-c2cccc(-c3cccc(-c4cnc(CNC[C@H](C)O)c(OC)n4)c3Cl)c2Cl)cnc1CNC[C@@H]1CCC(=O)N1` [compound 344]: the IC50 came out at 0.114 nM.

Regarding `COc1nc(-c2cccc(-c3cccc(-c4cnc(CNC[C@@H](C)O)c(OC)n4)c3Cl)c2Cl)cnc1CNC[C@@H]1CCC(=O)N1` [compound 345], the IC50 stood at 0.313 nM.

On to `COc1nc(-c2cccc(-c3cccc(-c4cnc(CN[C@@H](C)CO)c(OC)n4)c3Cl)c2Cl)cnc1CNC[C@@H]1CCC(=O)N1` [compound 346], for which the IC50 worked out at 0.323 nM.

For the molecule `COc1nc(-c2cccc(-c3cccc(-c4cnc(CN[C@H](C)CO)c(OC)n4)c3Cl)c2Cl)cnc1CNC[C@@H]1CCC(=O)N1` [compound 347], the IC50 worked out at 0.245 nM.

On to `COc1nc(-c2cccc(-c3cccc(-c4cnc(CN5CC(N6CC(O)C6)C5)c(OC)n4)c3Cl)c2Cl)cnc1CNC[C@@H]1CCC(=O)N1` [compound 348], for which the IC50 came out at 0.138 nM.

`COc1nc(-c2cccc(-c3cccc(-c4cnc(CN5CC(c6ccccn6)C5)c(OC)n4)c3Cl)c2Cl)cnc1CNC[C@@H]1CCC(=O)N1` [compound 349]: the IC50 worked out at 0.389 nM.

For the molecule `COc1nc(-c2cccc(-c3cccc(-c4cnc(CN5CC(c6ccccc6)C5)c(OC)n4)c3Cl)c2Cl)cnc1CNC[C@@H]1CCC(=O)N1` [compound 350], the IC50 came out at 0.737 nM.

As to `COc1nc(-c2cccc(-c3cccc(-c4cnc(CN5CC(N6CCOCC6)C5)c(OC)n4)c3Cl)c2Cl)cnc1CNC[C@@H]1CCC(=O)N1` [compound 351], the IC50 worked out at 0.283 nM.

Regarding `COc1nc(-c2cccc(-c3cccc(-c4cnc(Cn5c(C)ccc5C)c(OC)n4)c3Cl)c2Cl)cnc1CNC[C@@H]1CCC(=O)N1` [compound 352], the IC50 is 4.63 nM.

In the case of `COc1nc(-c2cccc(-c3cccc(-c4cnc(CN[C@@H]5CC[C@H](O)C5)c(OC)n4)c3Cl)c2Cl)cnc1CNC[C@@H]1CCC(=O)N1` [compound 353], the IC50 stood at 0.064 nM.

As to `COc1nc(-c2cccc(-c3cccc(-c4cnc(CN[C@@H]5CC[C@@H](O)C5)c(OC)n4)c3Cl)c2Cl)cnc1CNC[C@@H]1CCC(=O)N1` [compound 354], the IC50 was determined as 0.133 nM.

Turning to `COc1nc(-c2cccc(-c3cccc(-c4cnc(CN[C@H]5CC[C@H](O)C5)c(OC)n4)c3Cl)c2Cl)cnc1CNC[C@@H]1CCC(=O)N1` [compound 355], the IC50 was 0.129 nM.

On to `COc1nc(-c2cccc(-c3cccc(-c4cnc(CN[C@H]5CC[C@@H](O)C5)c(OC)n4)c3Cl)c2Cl)cnc1CNC[C@@H]1CCC(=O)N1` [compound 356], for which the IC50 is 0.102 nM.

With `COc1nc(-c2cccc(-c3cccc(-c4cnc(CN[C@H]5C[C@H](S(C)(=O)=O)C5)c(OC)n4)c3Cl)c2Cl)cnc1CNC[C@@H]1CCC(=O)N1` [compound 357], the IC50 was found to be 0.096 nM.

As to `COc1nc(-c2cccc(-c3cccc(-c4cnc(CN[C@H]5C[C@@H](S(C)(=O)=O)C5)c(OC)n4)c3Cl)c2Cl)cnc1CNC[C@@H]1CCC(=O)N1` [compound 358], the IC50 is 0.141 nM.
